Laboratory results taken from ChEMBL document CHEMBL4130367, “Click chemistry-based synthesis and anticancer activity evaluation of novel C-14 1,2,3-triazole dehydroabietic acid hybrids” (Eur J Med Chem, 2017).
The source made the active and inactive calls. No cut-off for these calls is given here.

How the values were obtained:
[1] = Selectivity index, ratio of IC50 for human HL7702 cells to IC50 for human U251 cells; assay type: toxicity; settings: HL7702 cells versus U251 cells, read-out: Ratio IC50
[2] = Selectivity index, ratio of IC50 for human HL7702 cells to IC50 for human LNCAP cells; assay type: toxicity; settings: HL7702 cells versus LNCAP cells, read-out: Ratio IC50
A549 [3] = assay: Cytotoxicity against human A549 cells assessed as reduction in cell viability after 72 hrs by MTT assay; assay type: functional, cell-based; settings: A549, 72 h
[4] = Metabolic stability in rat liver microsomes assessed as parent compound remaining after 30 mins in presence of NADPH by HPLC analysis; assay type: ADME, microsome; settings: read-out: Stability
LNCaP = assay: Cytotoxicity against human LNCAP cells assessed as reduction in cell viability after 72 hrs by MTT assay; assay type: functional, cell-based
MDA-MB-231 [5] = assay: Induction of apoptosis in human MDA-MB-231 cells assessed as late apoptotic cells at 1 uM after 24 hrs by Annexin V-FITC/propidium iodide staining based flow cytometry (reference value: 2.97%); assay type: functional
[6] = Selectivity index, ratio of IC50 for HFF cells to IC50 for human U251 cells; assay type: toxicity; settings: HFF cells versus U251 cells, read-out: Ratio IC50
MDA-MB-231 [7] = assay: Induction of apoptosis in human MDA-MB-231 cells assessed as dead cells at 1 uM after 24 hrs by Annexin V-FITC/propidium iodide staining based flow cytometry (reference value: 2.15%); assay type: functional
[8] = Selectivity index, ratio of IC50 for HFF cells to IC50 for human HCT116 cells; assay type: toxicity; settings: HFF cells versus HCT116 cells, read-out: Ratio IC50
[9] = Metabolic stability in mouse liver microsomes assessed as parent compound remaining after 150 mins in presence of NADPH by HPLC analysis; assay type: ADME, microsome; settings: read-out: Stability
SK-OV-3 = assay: Cytotoxicity against human SKOV3 cells assessed as reduction in cell viability after 72 hrs by MTT assay; assay type: functional, cell-based; settings: SK-OV-3, 72 h
[10] = Selectivity index, ratio of IC50 for human HL7702 cells to IC50 for human SMCC7721 cells; assay type: toxicity; settings: HL7702 cells versus SMCC7721 cells, read-out: Ratio IC50
MDA-MB-231 [11] = assay: Induction of apoptosis in human MDA-MB-231 cells assessed as cleaved caspase-3 protein expression up to 1 uM after 48 hrs by Western blot analysis; assay type: functional, cell-based
NCI/ADR-RES = assay: Growth inhibition of human MCF7/ADR cells after 72 hrs by MTT assay; assay type: functional, cell-based
[12] = Metabolic stability in rat liver microsomes assessed as parent compound remaining after 60 mins in presence of NADPH by HPLC analysis; assay type: ADME, microsome; settings: read-out: Stability
[13] = Octanol-water partition coefficient, log P of the compound; assay type: physicochemical
MDA-MB-231 [14] = assay: Cytotoxicity against human MDA-MB-231 cells assessed as reduction in cell viability after 72 hrs by MTT assay; assay type: functional, cell-based; settings: MDA-MB-231, 72 h
[15] = Selectivity index, ratio of IC50 for HFF cells to IC50 for human A549 cells; assay type: toxicity; settings: HFF cells versus A549 cells, read-out: Ratio IC50
[16] = Selectivity index, ratio of IC50 for HFF cells to IC50 for human SKBR3 cells; assay type: toxicity; settings: HFF cells versus SKBR3 cells, read-out: Ratio IC50
[17] = Half life in mouse liver microsomes in presence of NADPH by HPLC analysis; assay type: ADME, microsome
MDA-MB-231 [18] = assay: Induction of apoptosis in human MDA-MB-231 cells assessed as dead cells at 0.1 uM after 24 hrs by Annexin V-FITC/propidium iodide staining based flow cytometry (reference value: 2.15%); assay type: functional
A549 [19] = assay: Effect on microtubule formation in human A549 cells assessed as morphological changes at 1 to 10 umol after 18 hrs; assay type: cell-based
MDA-MB-231 [20] = assay: Induction of apoptosis in human MDA-MB-231 cells assessed as cleaved PARP protein expression up to 1 uM after 48 hrs by Western blot analysis; assay type: functional, cell-based
PC-3 = assay: Cytotoxicity against human PC3 cells assessed as reduction in cell viability after 72 hrs by MTT assay; assay type: functional, cell-based; settings: PC-3, 72 h
MDA-MB-231 [21] = assay: Induction of apoptosis in human MDA-MB-231 cells assessed as upregulation of Bax protein expression after 48 hrs by Western blot analysis; assay type: functional, cell-based
[22] = Metabolic stability in mouse liver microsomes assessed as parent compound remaining after 90 mins in presence of NADPH by HPLC analysis; assay type: ADME, microsome; settings: read-out: Stability
[23] = Metabolic stability in dog liver microsomes assessed as parent compound remaining after 90 mins in presence of NADPH by HPLC analysis; assay type: ADME, Canis lupus familiaris, microsome; settings: read-out: Stability
[24] = Metabolic stability in rat liver microsomes assessed as parent compound remaining after 120 mins in presence of NADPH by HPLC analysis; assay type: ADME, microsome; settings: read-out: Stability
[25] = Cytotoxicity against human […] cells assessed as reduction in cell viability after 72 hrs by MTT assay; assay type: functional, cell-based
L02 = assay: Cytotoxicity against human HL7702 cells assessed as reduction in cell viability after 72 hrs by MTT assay; assay type: cell-based; settings: L02, 72 h
[26] = Half life in rat liver microsomes in presence of NADPH by HPLC analysis; assay type: ADME, microsome
[27] = Metabolic stability in mouse liver microsomes assessed as parent compound remaining after 30 mins in presence of NADPH by HPLC analysis; assay type: ADME, microsome; settings: read-out: Stability
HFF = assay: Cytotoxicity against HFF cells assessed as reduction in cell viability after 72 hrs by MTT assay; assay type: cell-based; settings: Homo sapiens
[28] = Metabolic stability in rat liver microsomes assessed as parent compound remaining after 180 mins in presence of NADPH by HPLC analysis; assay type: ADME, microsome; settings: read-out: Stability
MCF7 = assay: cells; settings: Homo sapiens, MCF7, 72 h
Description: Cytotoxicity against human MCF7 cells assessed as reduction in cell viability after 72 hrs by MTT assay

MDA-MB-231 [29] = assay: Induction of apoptosis in human MDA-MB-231 cells assessed as late apoptotic cells at 0.1 uM after 24 hrs by Annexin V-FITC/propidium iodide staining based flow cytometry (reference value: 2.97%); assay type: functional
[30] = Selectivity index, ratio of IC50 for HFF cells to IC50 for human SMCC7721 cells; assay type: toxicity; settings: HFF cells versus SMCC7721 cells, read-out: Ratio IC50
SK-BR-3 = assay: Cytotoxicity against human SKBR3 cells assessed as reduction in cell viability after 72 hrs by MTT assay; assay type: functional, cell-based; settings: SK-BR-3, 72 h
[31] = Metabolic stability in dog liver microsomes assessed as parent compound remaining after 120 mins in presence of NADPH by HPLC analysis; assay type: ADME, Canis lupus familiaris, microsome; settings: 2 h
MDA-MB-231 [32] = assay: Induction of apoptosis in human MDA-MB-231 cells assessed as early apoptotic cells at 1 uM after 24 hrs by Annexin V-FITC/propidium iodide staining based flow cytometry (reference value: 2.33%); assay type: functional
[33] = Metabolic stability in mouse liver microsomes assessed as parent compound remaining after 120 mins in presence of NADPH by HPLC analysis; assay type: ADME, microsome; settings: read-out: Stability
[34] = Half life in dog liver microsomes in presence of NADPH by HPLC analysis; assay type: ADME, Canis lupus familiaris, microsome
MDA-MB-231 [35] = assay: Induction of apoptosis in human MDA-MB-231 cells assessed as early apoptotic cells at 0.1 uM after 24 hrs by Annexin V-FITC/propidium iodide staining based flow cytometry (reference value: 2.33%); assay type: functional

**Q.** Which selectivity ratio [1] does the source give for `COC(=O)[C@]1(C)CCC[C@]2(C)c3ccc(C(C)C)c(NC(=O)Cn4cc(-c5cccc(NC(=O)OC(C)(C)C)c5)nn4)c3CC[C@@H]12` here?
**A.** 4.5

**Q.** What about the selectivity ratio [2] of the same compound?
**A.** 12.4

**Q.** And the IC50 (A549 [3])?
**A.** 1.3 µM

**Q.** And the remaining at 0.5 h [4]?
**A.** 85.4%

**Q.** And the IC50 (LNCaP)?
**A.** 0.6 µM

**Q.** And the Activity (MDA-MB-231 [5])?
**A.** 16.75%

**Q.** And the selectivity ratio [6]?
**A.** 3.1

**Q.** What about the Activity (MDA-MB-231 [7]) of the same compound?
**A.** 7.01%

**Q.** And the selectivity ratio [8]?
**A.** 5.4

**Q.** And the remaining at 2.5 h [9]?
**A.** 25.7%

**Q.** And the IC50 (SK-OV-3)?
**A.** 1.2 µM

**Q.** What about the selectivity ratio [10] of the same compound?
**A.** 7.6

**Q.** And the Activity (MDA-MB-231 [11])?
**A.** Active

**Q.** What about the IC50 (NCI/ADR-RES) of the same compound?
**A.** 0.9 µM

**Q.** And the “growth inhibition (GI)” value (NCI/ADR-RES)?
**A.** Dose-dependent effect

**Q.** What about the remaining at 1 h [12] of the same compound?
**A.** 79.3%

**Q.** And the logP [13]?
**A.** 6.07

**Q.** And the IC50 (MDA-MB-231 [14])?
**A.** 0.7 µM

**Q.** And the selectivity ratio [15]?
**A.** 4.2

**Q.** What about the selectivity ratio [16] of the same compound?
**A.** 5.8

**Q.** And the half-life [17]?
**A.** 1.76 h

**Q.** What about the Activity (MDA-MB-231 [18]) of the same compound?
**A.** 7.57%

**Q.** And the Activity (A549 [19])?
**A.** inactive

**Q.** What about the Activity (MDA-MB-231 [20]) of the same compound?
**A.** Active

**Q.** What about the IC50 (PC-3) of the same compound?
**A.** 0.9 µM

**Q.** And the Activity (MDA-MB-231 [21])?
**A.** Active

**Q.** And the remaining at 1.5 h [22]?
**A.** 61.3%

**Q.** And the remaining at 1.5 h [23]?
**A.** 31.6%

**Q.** What about the remaining at 2 h [24] of the same compound?
**A.** 58.4%

**Q.** And the IC50 [25]?
**A.** 1.1 µM

**Q.** What about the IC50 (L02) of the same compound?
**A.** 7.8 µM

**Q.** And the half-life [26]?
**A.** 2.19 h

**Q.** And the remaining at 0.5 h [27]?
**A.** 87.9%

**Q.** What about the IC50 (HFF) of the same compound?
**A.** 5.4 µM

**Q.** What about the remaining at 3 h [28] of the same compound?
**A.** 31%

**Q.** What about the IC50 (MCF7) of the same compound?
**A.** 0.8 µM

**Q.** What about the Activity (MDA-MB-231 [29]) of the same compound?
**A.** 9.91%

**Q.** And the selectivity ratio [30]?
**A.** 5.2

**Q.** And the IC50 (SK-BR-3)?
**A.** 0.9 µM

**Q.** And the Stability [31]?
**A.** 4.8%

**Q.** And the Activity (MDA-MB-231 [32])?
**A.** 6.13%

**Q.** And the remaining at 2 h [33]?
**A.** 43.7%

**Q.** What about the t1/2 [34] of the same compound?
**A.** 1.16 h

**Q.** And the Activity (MDA-MB-231 [35])?
**A.** 4.32%
